Where two headings read alike, the source gives them in different places.
How the values were obtained:
SH-SY5Y cells [1] = test: Nuclear count from microscopy images (cellular growth and toxicity); also: reference of the scale not given here
endogenous TFE3 = test: TFE3 nuclear translocation, immunocytochemistry high-content imaging; assay type: cell-based
SH-SY5Y cells [2] = test: AK (adenylate kinase) release ToxiLight cytotoxicity assay; also: reference of the scale not given here
SH-SY5Y cells [3] = test system: SH-SY5Y cells; also: reference of the scale not given here
endogenous TFEB = test: TFEB nuclear translocation, immunocytochemistry high-content imaging; assay type: cell-based
[4] = PKIS2 primary screening, DQ Red BSA intensity
[5] = PKIS2 primary screening, DQ Red BSA spot count

| SMILES | Nuclear Count (SH-SY5Y cells [1]; PKIS2 primary screening) | TFE3 % (endogenous TFE3; PKIS2 primary screening) [%] | AK (SH-SY5Y cells [2]; PKIS2 primary screening) | DQ Intensity (SH-SY5Y cells [3]; [4]) | DQ Spot (SH-SY5Y cells [3]; [5]) | TFEB % (endogenous TFEB; PKIS2 primary screening) [%] | DQ Intensity (SH-SY5Y cells [3]; PKIS2 primary screening) | DQ Spot (SH-SY5Y cells [3]; PKIS2 primary screening) | Nuclear Count (SH-SY5Y cells [1]; PKIS2 primary screen) | TFE3 % (endogenous TFE3; PKIS2 primary screen) [%] | AK (SH-SY5Y cells [2]; PKIS2 primary screen) | DQ Intensity (SH-SY5Y cells [3]; PKIS2 primary screen, DQ Red BSA intensity) | DQ Spot (SH-SY5Y cells [3]; PKIS2 primary screen, DQ Red BSA spot count) | TFEB % (endogenous TFEB; PKIS2 primary screen) [%] |
| --- | --- | --- | --- | --- | --- | --- | --- | --- | --- | --- | --- | --- | --- | --- |
| NS(=O)(=O)c1cccc(-c2ccc3ncc(N4CCOCC4)nc3c2)c1 [UNC10225400A] | 118.72 | 6.51 | 95.42 | 83.02 | 88.90 | 4.14 | – | – | – | – | – | – | – | – |
| Cc1c(Cn2c(C)nn3c(=O)cc(N4CCO[C@H](C)C4)nc23)cccc1C(F)(F)F [UNC10225403A] | 94.79 | 10.58 | 91.29 | – | – | 3.43 | 146.49 | 116.83 | – | – | – | – | – | – |
| CN1C(=O)C(Nc2ccc(Cl)c(C(=O)O)c2)=C(c2ccc(Cl)cc2)C1=O [UNC10225406A] | 91.26 | 10.12 | 75.31 | 120.55 | 105.90 | 3.59 | – | – | – | – | – | – | – | – |
| CCn1c(-c2ccccc2)nc2cnccc21 [UNC10225407A] | 99.61 | 8.88 | 88.86 | – | – | 8.26 | 107.17 | 104.42 | – | – | – | – | – | – |
| Nc1ncnc2c1ncn2-c1cccc2ccccc12 [UNC10225410A] | 88.30 | 8.71 | 106.56 | – | – | 7.46 | 80.92 | 97.35 | – | – | – | – | – | – |
| COc1ccc(-n2cnc3c(N)ncnc32)cc1 [UNC10225413A] | 102.02 | 13.51 | 68.21 | – | – | 5.09 | 106.51 | 108.81 | – | – | – | – | – | – |
| Cc1cn2c(=O)cc(N3CCOCC3)nc2n1Cc1cccc(Cl)c1Cl [UNC10225415A] | 117.08 | 10.27 | 43.75 | – | – | 6.30 | 62.82 | 98.81 | – | – | – | – | – | – |
| CSc1nn2c(=O)cc(N3CCOCC3)nc2n1Cc1cccc(C(F)(F)F)c1C [UNC10225417A] | 112.74 | 6.63 | 90.24 | – | – | 3.46 | 90.90 | 96.76 | – | – | – | – | – | – |
| Fc1ccc(-c2nc[nH]c2-c2ccncc2)cc1 [UNC10225418A] | 56.56 | 16.61 | 94.96 | 103.88 | 114.99 | 7.46 | – | – | – | – | – | – | – | – |
| Cl.Cl.Cl.Fc1ccc(-c2ncn(C3CCNCC3)c2-c2ccnc(Nc3ccccc3)n2)cc1 [UNC10225420A] | 78.56 | 15.52 | 105.24 | – | – | 8.15 | 95.71 | 100.38 | – | – | – | – | – | – |
| Cl.Cl.Cl.Fc1ccc(-c2ncn(C3CCNCC3)c2-c2ccnc(Nc3ccccc3)n2)cc1 [UNC10225420B] | 69.94 | 11.83 | 83.09 | – | – | 2.15 | 154.30 | 110.72 | – | – | – | – | – | – |
| Cl.Fc1ccccc1COc1ccc(Nc2ncnc3ccc(-c4nnc(C(F)(F)F)o4)cc23)cc1Cl [UNC10225422A] | 121.67 | 5.47 | 104.09 | 100.75 | 98.62 | 3.54 | – | – | – | – | – | – | – | – |
| CSc1nccc(-c2c(-c3ccc(F)cc3)ncn2CCCN2CCOCC2)n1.Cl [UNC10225426A] | 113.07 | 5.71 | 81.99 | – | – | 11.69 | 91.90 | 91.96 | – | – | – | – | – | – |
| CS(=O)(=O)Nc1ccc(-c2ccnc3[nH]ccc23)cc1 [UNC10225427A] | 134.12 | 8.99 | 106.42 | 61.89 | 80.51 | 2.64 | – | – | – | – | – | – | – | – |
| Nc1nc(-c2nccs2)c(-c2ccnc3ccccc23)s1 [UNC10225429A] | 118.67 | 19.15 | 94.26 | 102.85 | 117.25 | 3.83 | – | – | – | – | – | – | – | – |
| COc1cc(Nc2nccc(-c3c(-c4cccc(NC(=O)c5c(F)cccc5F)c4)nn4ncccc34)n2)cc(OC)c1OC [UNC10225433A] | 35.61 | 17.61 | 102.19 | – | – | 23.04 | 122.13 | 59.34 | – | – | – | – | – | – |
| CSc1nn2c(=O)cc(N3CCOCC3)nc2n1Cc1cccc(Cl)c1Cl [UNC10225435A] | 99.93 | 19.82 | 85.33 | – | – | 4.09 | 59.30 | 119.93 | – | – | – | – | – | – |
| CSc1cccc2c(-c3ccncn3)c(-c3ccc(F)cc3)nn12 [UNC10225437A] | 89.95 | 10.83 | 100.64 | – | – | 6.79 | 120.45 | 125.69 | – | – | – | – | – | – |

| SMILES | Nuclear Count (SH-SY5Y cells [1]; PKIS2 primary screening) | TFE3 % (endogenous TFE3; PKIS2 primary screening) [%] | AK (SH-SY5Y cells [2]; PKIS2 primary screening) | DQ Intensity (SH-SY5Y cells [3]; [4]) | DQ Spot (SH-SY5Y cells [3]; [5]) | TFEB % (endogenous TFEB; PKIS2 primary screening) [%] | DQ Intensity (SH-SY5Y cells [3]; PKIS2 primary screening) | DQ Spot (SH-SY5Y cells [3]; PKIS2 primary screening) | Nuclear Count (SH-SY5Y cells [1]; PKIS2 primary screen) | TFE3 % (endogenous TFE3; PKIS2 primary screen) [%] | AK (SH-SY5Y cells [2]; PKIS2 primary screen) | DQ Intensity (SH-SY5Y cells [3]; PKIS2 primary screen, DQ Red BSA intensity) | DQ Spot (SH-SY5Y cells [3]; PKIS2 primary screen, DQ Red BSA spot count) | TFEB % (endogenous TFEB; PKIS2 primary screen) [%] |
| --- | --- | --- | --- | --- | --- | --- | --- | --- | --- | --- | --- | --- | --- | --- |
| O=c1cc(N2CCOCC2)nc2n(Cc3cccc4ccccc34)ccn12 [UNC10225439A] | 128.21 | 9.76 | 77.38 | – | – | 8.17 | 73.77 | 88.56 | – | – | – | – | – | – |
| Cl.O=C(Nc1cccc(-c2nn3ncccc3c2-c2ccnc(Nc3cccnc3)n2)c1)c1c(F)cccc1F [UNC10225440A] | 119.73 | 9.74 | 101.41 | – | – | 7.43 | 138.59 | 122.41 | – | – | – | – | – | – |
| Oc1cc(Nc2ccnc3cc(I)ccc23)ccc1F [UNC10225441A] | 104.34 | 8.03 | 73.72 | 124.88 | 110.03 | 12.97 | – | – | – | – | – | – | – | – |
| CN1CCC(n2cnc(-c3ccc(F)cc3)c2-c2ccnc(NC3CCNCC3)n2)CC1 [UNC10225443A] | 105.97 | 14.45 | 75.10 | – | – | 5.73 | 104.65 | 93.05 | – | – | – | – | – | – |
| COc1ccc(NC(=O)Nc2ccc(C)c(-c3ccc(C(=O)Nc4ccncc4)cc3)c2)cc1 [UNC10225445A] | 96.32 | 17.87 | 81.64 | – | – | 6.73 | 64.07 | 80.56 | – | – | – | – | – | – |
| Cc1n[nH]c2ccc(-c3cc(OC[C@@H](N)Cc4ccccc4)cnc3-c3ccoc3)cc12.O=C(O)C(F)(F)F.O=C(O)C(F)(F)F [UNC10225447A] | 74.49 | 18.99 | 97.39 | – | – | 5.41 | 66.58 | 65.23 | – | – | – | – | – | – |
| COc1cc2ncn(-c3cc(OCCCc4ccccc4)c(C(N)=O)s3)c2cc1OC [UNC10225450A] | 118.22 | 11.96 | 94.56 | – | – | 3.13 | 116.92 | 123.73 | – | – | – | – | – | – |
| O=C(O)C(F)(F)F.O=c1[nH]ccc2nc(N[C@@H]3CCNC3)nc(Nc3ccc4c(c3)S(=O)(=O)CC4)c12 [UNC10225451A] | 98.38 | 16.36 | 185.61 | – | – | 7.05 | 83.68 | 100.25 | – | – | – | – | – | – |
| CN(C)CCNS(=O)(=O)c1ccc(-c2ccnc3[nH]ccc23)cc1 [UNC10225452A] | 78.72 | 16.94 | 114.11 | 125.57 | 113.31 | 4.89 | – | – | – | – | – | – | – | – |
| COc1cccc(-n2cnc3c(N)ncnc32)c1 [UNC10225454A] | 128.34 | 8.30 | 83.60 | – | – | 7.17 | 95.23 | 104.69 | – | – | – | – | – | – |
| CCN(CC)CCOc1ccc(Nc2ncc3cc(-c4c(Cl)cccc4Cl)c(=O)n(C)c3n2)cc1 [UNC10225459A] | – | – | – | – | – | – | – | – | 26.96 | 18.27 | 131.29 | 115.72 | 64.83 | 22.54 |
| CCn1c(-c2nonc2N)nc2c(C#CC(C)(C)O)nc(OCCN)cc21.Cl.Cl [UNC10225460A] | 55.94 | 15.40 | 78.09 | – | – | 9.06 | 74.51 | 103.98 | – | – | – | – | – | – |
| O=S(=O)(c1ccc(-c2ccnc3[nH]ccc23)cc1)N1CCCC1 [UNC10225462A] | 103.12 | 10.23 | 140.08 | 72.77 | 93.44 | 5.43 | – | – | – | – | – | – | – | – |
| Cl.Cl.c1ccc(-c2cc3ccncc3cc2OC2CCNCC2)cc1 [UNC10225463A] | 112.69 | 49.72 | 97.09 | – | – | 5.07 | 117.87 | 77.04 | – | – | – | – | – | – |
| Cl.Cl.NCC(NC(=O)c1cc(-c2ccccc2)c(-c2ccnc3[nH]ccc23)s1)c1ccccc1 (stereo not drawn) [UNC10225466A] | 129.43 | 18.77 | 133.16 | 104.29 | 96.16 | 5.04 | – | – | – | – | – | – | – | – |
| Cl.Cl.NCC(NCc1ccc(-c2ccnc3[nH]ccc23)s1)c1ccccc1 (stereo not drawn) [UNC10225471A] | 123.37 | 13.41 | 98.53 | 100.58 | 94.95 | 4.03 | – | – | – | – | – | – | – | – |
| CN(C(=O)c1ccc(-c2cc(-c3c[nH]nc3-c3ccccn3)ccn2)cc1)C1CCOCC1 [UNC10225473A] | 84.56 | 13.07 | 101.87 | 126.52 | 117.08 | 8.39 | – | – | – | – | – | – | – | – |
